This is an account of results in patent US7745569B2, “Amyloid specific binding peptides and detecting abeta peptide” (The Regents of the University of California, priority 2003, dated 2010).

Data set [1] can be described thus: Uptake of peptide into brain, liver and kidney after tail vein injection. As to conditions: mouse, i.v. tail vein, 100 μL of 1 mg/mL; percentage relative to peptide in serum; SD, n=4.
Description: (§1) Peptides were injected in sterile Tris-buffered saline, pH 7.4, with 1 mM CaCl2 and 1 mM MgCl2. 4 animals were injected for each condition. Animals were then sacrificed after one minute or two minutes. Immediately upon sacrifice, blood and organs were harvested. To quantitate peptide uptake, brain, liver, and kidney were washed and the tissues lysed by homogenization in doubly distilled water. Organs and blood were centrifuged at 13000 g to collect lysate. Organ lysates or serum were then immobilized on ELISA plates that had been coated with nitrocellulose. Some tissue and serum samples were spiked with known amounts of purified peptide to verify levels of peptide immobilization in different sample types. […] The levels of biotinylated peptide immobilized on ELISA plates was quantitated by binding of alkaline phosphatase-conjugated streptavidin. Levels of streptavidin binding were determined by development with para-nitrophenylphosphate, as in Kang et al. (Neurobiology of Disease 14:146-156 (2003)).
For data set [2] the following is noted: mouse, in vivo, iv.
Description: as §1
For data set [3], the target named is T1, amyloid form of Aβ1-40 peptide (Homo sapiens, UniProt P05067, R676K/Y681T).
T1 construct: purchased Bachem (Torrence, Calif.)
Description: Staining of Aβ1-40 amyloid by phage clones. It counts as binding. As to conditions: 10^11 PFU/ml phage; anti-M13 antibody/alkaline phosphatase detection. Here is the method: Staining and blotting with phage: 10^11 PFU (plaque forming units)/ml of various phage clones were incubated with the amyloid form of Aβ1-40 peptide. Aβ amyloid was made by incubating peptide in TBS (pH 7.4) for 7 days on Falcon 24-well tissue culture wells. After washing, bound phage were visualized by incubation with biotinylated anti-M13 antibody and alkaline phosphatase-conjugated streptavidin, followed by incubation for equivalent times in 5-bromo-4-chloro-3-indolyl phosphate (BCIP) and nitroblue tetrazolium (NBT).

Another data set concerns the target T2, Aβ1-40 amyloid (Homo sapiens, UniProt P05067, R676K/Y681T).
T2 construct: purchased Bachem (Torrence, Calif.)
In kind it is binding. As to conditions: immobilized Aβ1-40 amyloid, ELISA. For orientation: An ELISA detects its analyte on a solid surface through an enzyme-linked reagent.

Data set [4] concerns amyloid plaques in Alzheimer's disease brain. Description: Staining of human brain sections (AD and normal) with Thio-Aβ, Thio and synthetic peptide. In kind it is binding. As to the method:
Staining of human brain with recombinant Thio-Aβ-protein and synthetic peptides: Normal and AD brain samples were obtained from the UCSD Alzheimer's Research Center (La Jolla, Calif.). Sections from a non-AD amyloidosis patient were obtained from the Department of Pathology (UCSD). Paraffin-embedded samples of cortex or other tissues were sectioned at 10 μm and mounted on glass slides. […] Binding was determined by subsequent staining with anti-Thio antibody and anti-mouse IgG coupled to alkaline phosphatase as above. After washing, staining was developed using 5-bromo-4-chloro-3-indolyl-phosphate and nitroblue tetrazolium for identical periods of time. All washes and incubations were done in phage buffer. The existence of amyloid plaques was confirmed by binding of anti-Aβ monoclonal antibody (2066) to sections from the same brain samples. No significant staining was ever observed with secondary antibody alone. Background staining was allowed to develop to the point where cells in the section were evident.
For staining with synthetic peptide, tissue sections from AD and non-AD brain, as well as from brain, kidney, small bowel, large bowel, and prostate from a non-AD patient with amyloidosis, were cut and prepared as above. Biotinylated peptide ([…]) (SEQ ID NO:4) was added in phage buffer for 1 hour at concentrations ranging from 0.1-10 μM. Sections were washed with phage buffer, incubated with streptavidin coupled to alkaline phosphatase, washed and developed as above. […] Congo Red or hematoxylin and eosin staining was done to confirm the presence of amyloid in amyloidosis sections.

Entries after “also recorded” stand apart in the source; their conditions may differ. Positions of bridges follow the written chain, without caps; N, C: chain ends. Residues, ends and D or L forms follow the SMILES beside them. No end group written: not given here. *: point of attachment. Biotin = O=C1N[C@H]2[C@H](CS[C@H]2CCCCC(=O)*)N1

Regarding `CC(C)C[C@@H]1NC(=O)[C@H](CCCNC(=N)N)NC(=O)[C@H](Cc2c[nH]c3ccccc23)NC(=O)[C@H](CCCNC(=N)N)NC(=O)CNC(=O)CNC(=O)[C@H](CCCCN)NC(=O)CNC(=O)[C@H](Cc2c[nH]c3ccccc23)NC(=O)[C@H](CC(=O)O)NC(=O)[C@@H](NC(=O)[C@H](CCC(=O)O)NC(=O)[C@H](C)NC(=O)CCCC[C@@H]2SC[C@@H]3NC(=O)N[C@@H]32)CSSC[C@@H](C(=O)NCC(=O)N2CCC[C@H]2C(=O)O)NC(=O)[C@H](C)NC(=O)[C@H](CCC(=O)O)NC(=O)[C@H]([C@@H](C)O)NC(=O)[C@H](CCCCN)NC(=O)CNC(=O)[C@H](CO)NC(=O)[C@H](C)NC(=O)CNC(=O)[C@@H]2CCCN2C(=O)[C@H](Cc2c[nH]c3ccccc23)NC1=O` (Biotin-AECDWGKGGRWRLWPGASGKTEACGP-OH; disulfide 3-24 (inferred); C-terminus assumed), the “% uptake/min, Kidney” value in data set [1] is recorded as 0.16 ± 0.02% uptake/min.
`CC(C)C[C@H](NC(=O)[C@H](CCCNC(=N)N)NC(=O)[C@H](Cc1c[nH]c2ccccc12)NC(=O)[C@H](CCCNC(=N)N)NC(=O)CNC(=O)CNC(=O)[C@H](CCCCN)NC(=O)CNC(=O)[C@H](Cc1c[nH]c2ccccc12)NC(=O)[C@H](CC(=O)O)NC(=O)CCCC[C@@H]1SC[C@@H]2NC(=O)N[C@@H]21)C(=O)N[C@@H](Cc1c[nH]c2ccccc12)C(=O)N1CCC[C@H]1C(=O)NCC(=O)N[C@@H](C)C(=O)N[C@@H](CO)C(=O)NCC(=O)N[C@@H](CCCCN)C(=O)N[C@H](C(=O)N[C@@H](CCC(=O)O)C(=O)N[C@@H](C)C(=O)O)[C@@H](C)O` (Biotin-DWGKGGRWRLWPGASGKTEA-OH): the “crossing of the blood-brain barrier (in words)” value in data set [2] was “did not cross the blood-brain barrier”.
On to DWGKGGRWRLWPGASGKTEA, for which the “staining of Aβ1-40 amyloid by phage clone” value in data set [3] was “identified both small and large (0.5-50 μm) accumulations of Aβ1-40 amyloid; also recorded: stained Aβ1-40 amyloid”.
On the same count and under the same terms, the value for PGRSPFTGKKLFNQEFSQDQ was “stained Aβ1-40 amyloid aggregates more poorly, but still stained well above background levels; also recorded: stained Aβ1-40 amyloid less well”.
On to “Thio-Aβ: Recombinant fusion protein of thioredoxin with the cysteine-flanked DWGKGGRWRLWPGASGKTEA (SEQ ID NO:2) peptide (PAECDWGKGGRWRLWPGASGKTEACGPPY; cysteine pairing not given here; also: recombinant fusion with thioredoxin, carrier left off)”, for which the “concentration at which binding to Aβ1-40 amyloid is saturating” value in the data set with Aβ1-40 amyloid amounted to 200 nM. For the same compound, in data set [4] (AD brain sections), the “lowest concentration giving positive staining of amyloid plaques” value is recorded as 100 nM and the “staining of neurofibrillary tangles” value is on record as “not evident”. Besides, the “staining of amyloid plaques in AD brain” value in data set [4] (paraffin sections of AD brain) is given as “heavily stained amyloid plaques from AD brains; also recorded: bound specifically to amyloid plaques in AD brains; also recorded: confirmed in brains from multiple AD subjects”. In data set [4] (paraffin sections of normal (non-AD) brain), the “staining of normal brain” value is on record as “did not stain any structures in normal brain tissue; also recorded: did not bind to normal brain samples; also recorded: negative in multiple non-AD controls”.
